Assay [1] addresses T1, Recombinant human ERalpha protein (Homo sapiens, UniProt P03372).
T1 construct: purchased MDS Pharma Services 226010; host or cells: insect Sf9 cells (printed as '519')
T1 sequence (P03372 1-595): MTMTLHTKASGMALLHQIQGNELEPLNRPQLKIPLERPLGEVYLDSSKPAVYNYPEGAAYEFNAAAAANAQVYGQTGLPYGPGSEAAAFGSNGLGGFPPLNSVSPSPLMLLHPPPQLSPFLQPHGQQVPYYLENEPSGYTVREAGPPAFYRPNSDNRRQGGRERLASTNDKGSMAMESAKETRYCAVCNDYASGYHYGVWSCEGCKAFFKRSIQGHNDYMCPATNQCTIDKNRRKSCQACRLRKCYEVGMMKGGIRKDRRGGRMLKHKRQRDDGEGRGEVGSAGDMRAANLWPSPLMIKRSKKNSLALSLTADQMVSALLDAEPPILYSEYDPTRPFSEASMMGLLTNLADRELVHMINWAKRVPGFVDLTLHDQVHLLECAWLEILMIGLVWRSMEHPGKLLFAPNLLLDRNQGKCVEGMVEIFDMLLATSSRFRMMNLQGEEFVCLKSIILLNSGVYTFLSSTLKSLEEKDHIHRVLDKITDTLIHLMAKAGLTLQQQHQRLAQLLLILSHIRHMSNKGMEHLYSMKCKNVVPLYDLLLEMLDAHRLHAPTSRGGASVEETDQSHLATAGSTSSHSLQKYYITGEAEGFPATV
Description: [3H] estradiol binding to recombinant human ERalpha (radioligand displacement, MDS cat No. 226010). The conditions noted are these: test compound 10 μM; 0.5 nM [3H] estradiol; 2 hours at 25° C.; in comparison to the vehicle control (1% DMSO). On the procedure:
Recombinant human ERalpha protein isolated from insect […] cells (MDS Pharma Services: cat No. 226010) was incubated with the test substance (dissolved in 1% DMSO) and 0.5 nM [^3H] estradiol for 2 hours at 25° C. in an incubation buffer (10 mM TrisHCl pH 7.4, 0.1% BSA, 10% Glycerol, 1 mM DTT). At the end of the incubation period, receptor-bound [^3H] estradiol was quantified. Stimulating or inhibiting effects equal or larger than 50% in comparison to vehicle control (1% DMSO) were considered to be significant. The final concentration of the test compound was 10 μM.
(§1) The assays described in Examples 4 and 5 were conducted by MDS (catalogue number 226010 for ERalpha and 226050 for ERbeta, respectively) following procedures established in literature (Obourn et al., Biochemistry 1993, 32: 6229-6236).
For orientation: In a radioligand displacement assay an active substance lowers the binding of a labelled ligand.

Assay [2] deals with T2, Recombinant human ERbeta protein (Homo sapiens, UniProt Q92731).
T2 construct: purchased MDS Pharma Services 226050; host or cells: insect Sf9 cells
Description: [3H] estradiol binding to recombinant human ERbeta (radioligand displacement, MDS cat No. 226050). The note with it: test compound 10 μM; 0.5 nM [3H] estradiol; 2 hours at 25° C.; in comparison to the vehicle control (1% DMSO). The protocol: Recombinant human ERbeta protein isolated from insect Sf9 cells (MDS Pharma Services: cat No. 226050) was incubated with the test substance (dissolved in 1% DMSO) and 0.5 nM [^3H] estradiol for 2 hours at 25° C. in an incubation buffer (10 mM TrisHCl pH 7.4, 0.1% BSA, 10% Glycerol, 1 mM DTT). At the end of the incubation period, receptor-bound [^3H] estradiol was quantified. Stimulating or inhibiting effects equal or larger than 50% in comparison to vehicle control (1% DMSO) were considered to be significant. The final concentration of the test compound was 10 μM.
as §1

T2 sequence (Q92731 whole entry): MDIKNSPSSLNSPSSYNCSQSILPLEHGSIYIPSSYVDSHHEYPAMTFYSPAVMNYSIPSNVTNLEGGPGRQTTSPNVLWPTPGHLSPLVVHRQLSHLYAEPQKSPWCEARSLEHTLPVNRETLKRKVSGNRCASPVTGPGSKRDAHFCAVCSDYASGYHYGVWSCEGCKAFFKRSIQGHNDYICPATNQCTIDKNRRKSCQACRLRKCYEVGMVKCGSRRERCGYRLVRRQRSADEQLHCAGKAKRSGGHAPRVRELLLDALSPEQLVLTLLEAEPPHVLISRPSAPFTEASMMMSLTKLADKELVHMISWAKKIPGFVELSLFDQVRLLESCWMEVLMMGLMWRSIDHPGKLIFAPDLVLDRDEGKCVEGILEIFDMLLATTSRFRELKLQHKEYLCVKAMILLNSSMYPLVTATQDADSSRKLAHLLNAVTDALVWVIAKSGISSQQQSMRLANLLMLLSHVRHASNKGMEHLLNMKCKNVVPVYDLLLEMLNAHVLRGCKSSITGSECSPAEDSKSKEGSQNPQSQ

One may read the inhibition as the relative decrease from the control value, in per cent. With `O=C1/C(=C/c2ccc(O)cc2O)Oc2cc(O)cc(O)c21` [SM29 (3), 2′,4,4′,6-Tetrahydroxyaurone], the figures for the inhibition at 10 µM in assay [1] and in assay [2] were 2% and 13%, respectively.

Turning to `O=C1/C(=C/c2ccc(O)cc2)Oc2cc(O)cc(O)c21` [SM30 (3), 4,4′,6-Trihydroxyaurone], the inhibition at 10 µM in assay [1] turned out to be 18%; in assay [2], 91%.
